US8722626B2, “Method for controlling fibrosis and other pathological deposits in tissues comprising administering a GHRP-6 composition” (Centro de Ingenieria Genetica y Biotecnologia, priority 2006, dated 2014)
Marks after values point to notes of the source that are not given here.

Tests used:
[1] = tested on: human keloid fragments xeno-transplanted in athymic mice; assay: Human keloid fragments xeno-transplanted into athymic mice (Example 7); format: in vivo, mouse
Source text: To study the effect of peptides GHRP-6, GHRP-2, Hexarelin and/or Ghrelin in eradicating the pathological deposits of physiological material in the skin, human keloid fragments were xeno-transplanted into the dorsal region in athymic mice. After 72 hrs of evolution, to corroborate grafting and viability of xeno-transplants, the animals (N=6) were randomly distributed into the following experimental groups: • A—Saline control group (vehicle of the active principles). • B—Group receiving GHRP-6. • C—Group receiving GHRP-2. • D—Group receiving Ghrelin. • E—Group receiving Hexarelin. • Treatments were applied once every 24 hrs during 7 days. The substances were infiltrated at the edges in the implants, for local bioavailability of the active principles, at dosages from 5 micrograms to 1 milligram. After the treatment period, the animals were sacrificed and the implants extracted to evaluate the pharmacological response to every substance. Samples were weighed and fragmented for histological studies and biochemical determinations of collagen. The fragments for histological studies were fixed in 10% formalin neutral, and those fragments for biochemical analyses were stored at −70° C. • The parameters studied were: • a—Wet weight of the graft collected. • b—Hydroxiproline content in the tissue. • c—Number of microscopic fields with tissue positive to Picrosirius red staining and trichromic Masson's staining.

[2] = tested on: male APP transgenic mice expressing the beta-amiloid precursor protein; assay: Beta-amiloid protein deposition in brain of APP transgenic mice (Example 5); format: in vivo, mouse; parameters: SODt (oxidative stress marker) / Catalase (oxidative stress marker) / HPT (oxidative stress marker) / MDA (oxidative stress marker): unit not given here; conditions: 8 weeks; for Catalase (oxidative stress marker) / HPT (oxidative stress marker) / MDA (oxidative stress marker) / SODt (oxidative stress marker): brain tissues; for No. of deposits positive to Congo Red / No. of deposits positive to beta-amiloid / Size of amiloid plaques: brain
Procedure: This study was conducted to evaluate the influence of the long-term administration (8 weeks) of the GHRP-6 on the biochemical and morphological markers in the brain of transgenic mice expressing the beta-amiloid precursor protein, these markers also indicating the progression of the central nervous system damage. For the present study, 20-25 g in body weight male APP transgenic mice were acquired, expressing the beta-amiloid precursor protein. Animals (N=30) were randomly distributed in:
Placebo group—Physiological saline solution 0.9%.
Dosage I group—GHRP-6 at 50 μg/kg of body weight in saline solution.
Dosage II group—GRHP-6 at 100 μg/kg of body weight in saline solution.
Treatments were applied by the intraperitoneal route in 1 ml, five days a week during 8 weeks, with animals receiving 40 administrations of GHRP-6. We knew from previous exploratory pilot studies that this period of time was sufficient for improving cognitive and motor skills in animals under stress.
After 8 weeks of treatment, mice were sacrificed by anesthesia overdose, and perfused in situ with saline solution. Encephala were extracted, one encephalon was frozen in dry-ice and the other was fixed in 4% para-formaldehyde neutral. Samples were cryo-sliced at 10 μm and slices were stained with hematoxylin/eosin, Congo Red, or incubated with an antibody specific for the beta-amiloid protein. Morphometric procedures were carried out by microscopic imaging capture by a camera connected to the microscope, and the images were analyzed with the DIGIPAT software.
The number of fibrillar deposits of the beta-amiloid protein positive to Congo Red staining.
The number of foci immunoreactive to the antibody that recognizes the beta-amiloid protein.
Size of the beta-amiloid plaques in the brain, recognized at 200× and 400× magnifications (μm^2).
Brain concentration of myo-inositol as indicator of aging and brain metabolism deterioration (μmol/g of tissue).

[3] = tested on: hepatic fibrosis in male Wistar rats (CCl4); assay: Reverting hepatic fibrosis induced by carbon tetrachloride (CCl4) in rats (Example 2); format: in vivo, rat; parameters: SODt (oxidative stress marker) / Catalase (oxidative stress marker) / HPT (oxidative stress marker) / MDA (oxidative stress marker): unit not given here; conditions: for GOT serum level / GPT serum level / OH—P Content (hydroxiproline) in the liver / Grade 0 (null) bridging fibro-proliferative reaction in liver, animals per group / Grade 1 (moderate, up to 25% of the slide), animals per group / Grade 2 (limited, up to 50% of the slide), animals per group / Grade 3 (severe, up to the 75% of the slide), animals per group / Grade 4 (very severe, over 75% of the slide), animals per group: four weeks; for GOT serum level / GPT serum level / OH—P Content (hydroxiproline) in the liver: end of treatment; for Grade 0 (null) bridging fibro-proliferative reaction in liver, animals per group / Grade 1 (moderate, up to 25% of the slide), animals per group / Grade 2 (limited, up to 50% of the slide), animals per group / Grade 3 (severe, up to the 75% of the slide), animals per group / Grade 4 (very severe, over 75% of the slide), animals per group: n = 15; for Catalase (oxidative stress marker) / HPT (oxidative stress marker) / MDA (oxidative stress marker) / SODt (oxidative stress marker): liver samples, end of the third week of treatment
Procedure: This experiment was conducted to evaluate the effect of the pharmaceutical composition containing the GHRP-6 on reverting hepatic fibrosis in rats, wherein said hepatic fibrosis was induced by carbon tetrachloride (CCl4). This is a hepatotoxic agent that causes chronic hepatitis and fibrosis after long-term administration. Hepatic fibrosis was induced in male Wistar rats of 250 g of body weight by intraperitoneally administered CCl4 50%/50% (v/v) in olive oil, twice per week during four weeks. After that time, 25% of the rats were sacrificed and subjected to blood biochemistry and pathological anatomy studies. […] The animals remaining were randomly distributed into three experimental groups of 15 rats each: (1) Control placebo group, receiving physiological saline solution, (2) Group receiving the GHRP-6 at a 100 μg/kg dosage, and (3) Group receiving the GHRP-6 at a 400 μg/kg dosage. […] Treatments were started immediately after the fibrosis established and the suspension of CCl4 administration. […] Liver fragments were fixed in formalin neutral and processed by hematoxylin/eosin staining, or by Masson's trichromic staining, to evaluate the general damage and the severity of fibrotic indurations. Other fragments of liver tissues were stored at −70° C. until processing to determine the content of hydroxiproline by acid hydrolysis in 1N HCl, and also the intrahepatic levels of redox metabolism markers. Biochemical determinations were carried out by calculating the total protein content by the Bradford's method. The response to the treatment with the pharmaceutical composition was characterized by determining the serum levels of GOT and GPT transaminases, histological criteria in quantitative scale and some markers distinctive of the levels of lipid peroxidation.

[4] = infiltrated at the edges in the implants once every 24 hrs during 7 days, 5 micrograms to 1 milligram
[5] = Dosage I: 50 μg/kg i.p. five days a week
[6] = Dosage II: 100 μg/kg i.p. five days a week
[7] = Dosage II: 400 μg/kg once daily

GHRP-6 was tested, and the “No. of fields positive to collagen-specific staining” value ([1]; Picrosirius red and trichromic Masson's staining, 4× and 10× averaged, infiltrated once every 24 hrs during 7 days) was 11.45, the “No. of microscopic fields with mast cells (20X magnif.)” value ([1]; aniline blue staining, infiltrated once every 24 hrs during 7 days) was 9.54 ± 2.15 and the “Hydroxiproline content in the tissue” value [1, 4] was 88.27 ± 4.61 µg/g. The “Wet weight of the graft collected” value [1, 4] was 6.71 ± 1.18 a grams, the “Myo-inositol concentration in the brain.” value [2, 5] was 49.35 ± 10 μmol/g of tissue and the “Myo-inositol concentration in the brain.” value [2, 6] was 27.45 ± 8.61 μmol/g of tissue. The “Catalase (oxidative stress marker)” value ([2]; Dosage I: 50 μg/kg i.p.) was 81.6 ± 15.25, the “HPT (oxidative stress marker)” value ([2]; Dosage I: 50 μg/kg i.p.) was 54.3 ± 11.87 and the “MDA (oxidative stress marker)” value ([2]; Dosage I: 50 μg/kg i.p.) was 0.77 ± 1.56. The “SODt (oxidative stress marker)” value ([2]; Dosage I: 50 μg/kg i.p.) was 611.17 ± 44.79, the “Catalase (oxidative stress marker)” value ([2]; Dosage II: 100 μg/kg i.p.) was 60.18 ± 13.67 and the “HPT (oxidative stress marker)” value ([2]; Dosage II: 100 μg/kg i.p.) was 21.25 ± 5.44. The “MDA (oxidative stress marker)” value ([2]; Dosage II: 100 μg/kg i.p.) was 0.4 ± 0.02, the “SODt (oxidative stress marker)” value ([2]; Dosage II: 100 μg/kg i.p.) was 863.22 ± 50.3 and the “No. of deposits positive to Congo Red” value [2, 5] was 21.78 ± 6.57. For the same substance, the “No. of deposits positive to beta-amiloid” value [2, 5] was 15.11 ± 3.27, the “Size of amiloid plaques” value [2, 5] was 15.51 ± 6.44 μm^2 and the “No. of deposits positive to Congo Red” value [2, 6] was 14.52 ± 4.18. The “No. of deposits positive to beta-amiloid” value [2, 6] was 13.58 ± 4.61, the “Size of amiloid plaques” value [2, 6] was 10.88 ± 4.1 μm^2 and the GOT serum level ([3]; Dosage I: 100 μg/kg once daily) was 56.31 ± 12.19 IU/l. For the same substance, the GPT serum level ([3]; Dosage I: 100 μg/kg once daily) was 77.15 ± 22.66 IU/l, the “OH—P Content (hydroxiproline) in the liver” value ([3]; Dosage I: 100 μg/kg once daily) was 40.21 ± 3.54 μg/g of total proteins and the “Grade 0 (null) bridging fibro-proliferative reaction in liver, animals per group” value ([3]; Dosage I: 100 μg/kg once daily) was 0. The “Grade 1 (moderate, up to 25% of the slide), animals per group” value ([3]; Dosage I: 100 μg/kg once daily) was 9, the “Grade 2 (limited, up to 50% of the slide), animals per group” value ([3]; Dosage I: 100 μg/kg once daily) was 6* and the “Grade 3 (severe, up to the 75% of the slide), animals per group” value ([3]; Dosage I: 100 μg/kg once daily) was 0. For the same substance, the “Grade 4 (very severe, over 75% of the slide), animals per group” value ([3]; Dosage I: 100 μg/kg once daily) was 0, the GOT serum level [3, 7] was 28.18 ± 4.71 IU/l and the GPT serum level [3, 7] was 26.94 ± 12.42 IU/l. For the same substance, the “OH—P Content (hydroxiproline) in the liver” value [3, 7] was 10.22 ± 4.33 μg/g of total proteins, the “Grade 0 (null) bridging fibro-proliferative reaction in liver, animals per group” value [3, 7] was 8* and the “Grade 1 (moderate, up to 25% of the slide), animals per group” value [3, 7] was 7. The “Grade 2 (limited, up to 50% of the slide), animals per group” value [3, 7] was 0, the “Grade 3 (severe, up to the 75% of the slide), animals per group” value [3, 7] was 0 and the “Grade 4 (very severe, over 75% of the slide), animals per group” value [3, 7] was 0. The “Catalase (oxidative stress marker)” value ([3]; Dosage I: 100 μg/kg) was 60.43 ± 11.81, the “HPT (oxidative stress marker)” value ([3]; Dosage I: 100 μg/kg) was 55.11 ± 2.77 and the “MDA (oxidative stress marker)” value ([3]; Dosage I: 100 μg/kg) was 0.16 ± 1.16. For the same substance, the “SODt (oxidative stress marker)” value ([3]; Dosage I: 100 μg/kg) was 17632.08 ± 321.55, the “Catalase (oxidative stress marker)” value ([3]; Dosage II: 400 μg/kg) was 22.67 ± 3.56 and the “HPT (oxidative stress marker)” value ([3]; Dosage II: 400 μg/kg) was 26.44 ± 2.43. The “MDA (oxidative stress marker)” value ([3]; Dosage II: 400 μg/kg) was 0.09 ± 0.01, the “SODt (oxidative stress marker)” value ([3]; Dosage II: 400 μg/kg) was 20187.87 ± 245.13 and the “Deposition of collagenous and extracellular matrix materials in the liver parenchyma (overall result)” value ([3]; repeated CCl4 administration) was “eradicate and control deposition of collagenous and extracellular matrix materials”. The Hepatocytes death ([3]; repeated CCl4 administration) was “prevents individual, focal and pericentrolobular hepatocytes death”.
